Experiment [1] deals with T1, Prostaglandin G/H synthase 1 (Rattus norvegicus, UniProt Q63921).
T1 sequence (Q63921 whole entry): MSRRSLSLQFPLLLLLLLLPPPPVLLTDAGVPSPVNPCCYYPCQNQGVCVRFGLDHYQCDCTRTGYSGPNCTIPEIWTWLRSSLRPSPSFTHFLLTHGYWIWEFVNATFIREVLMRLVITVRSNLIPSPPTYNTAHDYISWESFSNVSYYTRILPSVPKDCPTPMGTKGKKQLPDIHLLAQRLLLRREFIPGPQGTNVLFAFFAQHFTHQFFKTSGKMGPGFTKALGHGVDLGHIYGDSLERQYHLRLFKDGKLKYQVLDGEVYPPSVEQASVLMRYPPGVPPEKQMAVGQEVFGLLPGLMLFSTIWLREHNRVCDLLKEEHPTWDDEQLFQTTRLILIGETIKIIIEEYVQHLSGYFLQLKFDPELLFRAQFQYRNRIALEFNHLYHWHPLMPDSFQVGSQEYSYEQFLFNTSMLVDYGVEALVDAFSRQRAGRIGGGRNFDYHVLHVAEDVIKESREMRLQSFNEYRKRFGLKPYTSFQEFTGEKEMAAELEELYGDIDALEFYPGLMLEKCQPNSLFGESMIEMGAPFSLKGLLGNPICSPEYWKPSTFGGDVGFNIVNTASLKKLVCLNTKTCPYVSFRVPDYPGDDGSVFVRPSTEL
The format is functional.

Experiment [2] has as its target T2, Endothelin-1 receptor (Homo sapiens, UniProt P25101).
T2 sequence (P25101 whole entry): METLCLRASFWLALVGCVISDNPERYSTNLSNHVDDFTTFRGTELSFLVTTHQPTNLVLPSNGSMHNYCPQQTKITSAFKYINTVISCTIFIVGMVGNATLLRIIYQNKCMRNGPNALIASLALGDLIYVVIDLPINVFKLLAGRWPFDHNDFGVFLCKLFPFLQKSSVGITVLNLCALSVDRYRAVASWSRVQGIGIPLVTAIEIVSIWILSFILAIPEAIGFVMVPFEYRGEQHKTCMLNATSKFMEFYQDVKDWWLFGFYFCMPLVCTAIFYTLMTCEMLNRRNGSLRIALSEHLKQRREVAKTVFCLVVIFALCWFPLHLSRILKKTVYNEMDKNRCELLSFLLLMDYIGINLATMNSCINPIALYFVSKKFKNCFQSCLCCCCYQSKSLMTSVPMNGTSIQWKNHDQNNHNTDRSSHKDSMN

In experiment [3] the target is T3, 5-hydroxytryptamine receptor 2A (Homo sapiens, UniProt P28223). In kind it is functional, cell-based.
The target of experiment [4] is Adenosine receptor A2a (Homo sapiens, UniProt P29274).
Experiment [5] addresses T4, Cannabinoid receptor 1 (Homo sapiens, UniProt P21554). The format is functional, cell-based.
Experiment [6] addresses Muscarinic acetylcholine receptor M3 (Homo sapiens, UniProt P20309).
For experiment [7], the target named is T3, 5-hydroxytryptamine receptor 2A. In kind it is functional, cell-based. This is another data set of the same source.
In experiment [8] the target is T5, Adenosine receptor A3 (Homo sapiens, UniProt P0DMS8).
T5 sequence (P0DMS8 whole entry): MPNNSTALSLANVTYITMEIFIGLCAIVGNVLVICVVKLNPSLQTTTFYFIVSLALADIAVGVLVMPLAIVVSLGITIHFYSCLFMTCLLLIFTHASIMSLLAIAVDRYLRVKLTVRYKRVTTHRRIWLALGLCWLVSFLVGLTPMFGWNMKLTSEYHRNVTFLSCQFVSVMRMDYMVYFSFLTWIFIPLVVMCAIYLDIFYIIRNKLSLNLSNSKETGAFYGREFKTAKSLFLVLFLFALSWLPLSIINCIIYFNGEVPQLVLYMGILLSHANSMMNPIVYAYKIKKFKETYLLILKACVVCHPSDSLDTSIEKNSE

For experiment [9], the target named is T4, Cannabinoid receptor 1. The format is functional, cell-based. The source holds these as a separate data set.
Experiment [10] deals with Beta-2 adrenergic receptor (Homo sapiens, UniProt P07550). In kind it is functional, cell-based.
Experiment [11] addresses T6, 5-hydroxytryptamine receptor 1A (Homo sapiens, UniProt P08908).
T6 sequence (P08908 whole entry): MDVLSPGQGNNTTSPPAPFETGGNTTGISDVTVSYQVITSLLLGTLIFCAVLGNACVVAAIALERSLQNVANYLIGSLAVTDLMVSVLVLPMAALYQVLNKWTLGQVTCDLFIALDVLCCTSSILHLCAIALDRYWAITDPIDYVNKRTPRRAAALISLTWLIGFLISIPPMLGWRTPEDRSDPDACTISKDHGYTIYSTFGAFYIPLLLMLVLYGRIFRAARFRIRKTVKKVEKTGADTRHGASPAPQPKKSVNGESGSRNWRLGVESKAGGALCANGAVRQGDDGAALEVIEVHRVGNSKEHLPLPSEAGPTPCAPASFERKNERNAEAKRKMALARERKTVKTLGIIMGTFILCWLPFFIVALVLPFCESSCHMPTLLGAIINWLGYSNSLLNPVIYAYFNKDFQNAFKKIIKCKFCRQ
The format is functional, cell-based.

The target of experiment [12] is T7, Alpha-1A adrenergic receptor (Homo sapiens, UniProt P35348).
T7 sequence (P35348 whole entry): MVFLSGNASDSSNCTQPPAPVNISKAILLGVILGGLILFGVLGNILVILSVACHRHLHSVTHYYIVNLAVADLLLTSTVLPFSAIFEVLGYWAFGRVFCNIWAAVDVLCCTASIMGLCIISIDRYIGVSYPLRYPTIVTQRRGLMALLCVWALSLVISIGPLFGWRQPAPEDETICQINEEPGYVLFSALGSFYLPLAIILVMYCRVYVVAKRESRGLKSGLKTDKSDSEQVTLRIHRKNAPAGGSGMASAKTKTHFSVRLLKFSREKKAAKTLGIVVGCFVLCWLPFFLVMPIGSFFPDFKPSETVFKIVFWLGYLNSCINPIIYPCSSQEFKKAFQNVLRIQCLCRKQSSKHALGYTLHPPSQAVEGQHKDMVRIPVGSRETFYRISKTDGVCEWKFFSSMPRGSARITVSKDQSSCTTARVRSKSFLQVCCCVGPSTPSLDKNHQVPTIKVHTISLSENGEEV

The target of experiment [13] is Mu-type opioid receptor (Homo sapiens, UniProt P35372).
The target of experiment [14] is T4, Cannabinoid receptor 1.
Experiment [15] deals with Melanocortin receptor 4 (Homo sapiens, UniProt P32245).

The structures appear in SMILES notation.
Further: assay procedure not described here.

T3 sequence (P28223 whole entry): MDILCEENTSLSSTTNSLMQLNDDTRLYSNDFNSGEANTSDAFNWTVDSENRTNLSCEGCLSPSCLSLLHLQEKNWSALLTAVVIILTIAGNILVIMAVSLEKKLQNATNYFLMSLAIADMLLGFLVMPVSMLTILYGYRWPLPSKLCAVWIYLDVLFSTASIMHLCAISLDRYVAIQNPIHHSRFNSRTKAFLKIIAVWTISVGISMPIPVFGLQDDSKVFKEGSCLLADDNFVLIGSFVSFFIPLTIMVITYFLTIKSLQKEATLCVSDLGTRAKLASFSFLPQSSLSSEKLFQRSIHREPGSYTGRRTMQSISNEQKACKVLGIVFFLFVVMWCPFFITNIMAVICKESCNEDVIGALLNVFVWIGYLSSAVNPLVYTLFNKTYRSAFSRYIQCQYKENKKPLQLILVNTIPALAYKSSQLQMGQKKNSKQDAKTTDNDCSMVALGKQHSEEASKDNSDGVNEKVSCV
Chain of Muscarinic acetylcholine receptor M3 (P20309 whole entry): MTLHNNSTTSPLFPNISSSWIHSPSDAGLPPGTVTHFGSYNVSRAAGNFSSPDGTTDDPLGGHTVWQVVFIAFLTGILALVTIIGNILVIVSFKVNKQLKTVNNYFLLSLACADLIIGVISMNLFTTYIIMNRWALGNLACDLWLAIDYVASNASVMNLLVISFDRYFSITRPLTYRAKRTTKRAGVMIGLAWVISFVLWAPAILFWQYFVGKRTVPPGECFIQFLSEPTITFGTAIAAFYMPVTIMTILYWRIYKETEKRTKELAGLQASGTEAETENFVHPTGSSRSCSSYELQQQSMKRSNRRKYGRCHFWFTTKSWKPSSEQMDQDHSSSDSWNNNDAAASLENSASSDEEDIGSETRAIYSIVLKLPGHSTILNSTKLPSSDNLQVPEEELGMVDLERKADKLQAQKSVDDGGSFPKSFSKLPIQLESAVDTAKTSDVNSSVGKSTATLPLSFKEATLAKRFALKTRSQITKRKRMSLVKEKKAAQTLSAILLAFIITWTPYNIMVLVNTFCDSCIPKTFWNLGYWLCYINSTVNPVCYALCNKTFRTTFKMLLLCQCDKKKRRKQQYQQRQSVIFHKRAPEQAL
T4 sequence (P21554 whole entry): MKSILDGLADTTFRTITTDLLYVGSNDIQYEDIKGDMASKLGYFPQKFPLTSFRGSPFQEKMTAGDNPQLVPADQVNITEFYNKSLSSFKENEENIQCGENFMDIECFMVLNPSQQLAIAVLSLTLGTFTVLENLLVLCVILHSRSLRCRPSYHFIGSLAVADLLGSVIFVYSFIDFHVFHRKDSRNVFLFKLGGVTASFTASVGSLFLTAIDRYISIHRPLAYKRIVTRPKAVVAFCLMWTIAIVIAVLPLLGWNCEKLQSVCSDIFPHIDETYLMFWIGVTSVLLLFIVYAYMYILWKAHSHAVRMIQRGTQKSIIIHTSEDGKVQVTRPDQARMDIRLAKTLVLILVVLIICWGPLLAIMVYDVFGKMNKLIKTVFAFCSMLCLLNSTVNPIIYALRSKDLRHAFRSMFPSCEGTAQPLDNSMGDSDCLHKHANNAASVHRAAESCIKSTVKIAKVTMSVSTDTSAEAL
Chain of Melanocortin receptor 4 (P32245 whole entry): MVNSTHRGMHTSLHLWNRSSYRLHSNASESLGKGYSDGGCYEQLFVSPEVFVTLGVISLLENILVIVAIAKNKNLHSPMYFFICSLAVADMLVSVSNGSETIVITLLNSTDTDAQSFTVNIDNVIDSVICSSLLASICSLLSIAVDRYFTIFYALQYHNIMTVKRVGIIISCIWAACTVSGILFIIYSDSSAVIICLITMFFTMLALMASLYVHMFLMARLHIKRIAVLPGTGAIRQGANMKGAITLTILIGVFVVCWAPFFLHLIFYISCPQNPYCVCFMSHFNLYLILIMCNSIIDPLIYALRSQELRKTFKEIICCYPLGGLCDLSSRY
Chain of Beta-2 adrenergic receptor (P07550 whole entry): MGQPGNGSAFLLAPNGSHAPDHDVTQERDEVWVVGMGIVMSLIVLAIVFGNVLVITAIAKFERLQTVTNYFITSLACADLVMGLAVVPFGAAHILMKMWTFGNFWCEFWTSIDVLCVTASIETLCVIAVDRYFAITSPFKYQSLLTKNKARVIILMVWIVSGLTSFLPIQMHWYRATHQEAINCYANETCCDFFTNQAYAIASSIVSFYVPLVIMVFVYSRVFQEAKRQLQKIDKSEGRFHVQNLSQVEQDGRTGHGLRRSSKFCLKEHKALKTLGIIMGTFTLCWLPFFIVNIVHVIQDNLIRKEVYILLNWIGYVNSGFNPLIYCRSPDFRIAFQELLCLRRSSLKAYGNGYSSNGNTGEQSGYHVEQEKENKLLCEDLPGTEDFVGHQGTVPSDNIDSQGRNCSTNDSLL
Chain of Mu-type opioid receptor (P35372 whole entry): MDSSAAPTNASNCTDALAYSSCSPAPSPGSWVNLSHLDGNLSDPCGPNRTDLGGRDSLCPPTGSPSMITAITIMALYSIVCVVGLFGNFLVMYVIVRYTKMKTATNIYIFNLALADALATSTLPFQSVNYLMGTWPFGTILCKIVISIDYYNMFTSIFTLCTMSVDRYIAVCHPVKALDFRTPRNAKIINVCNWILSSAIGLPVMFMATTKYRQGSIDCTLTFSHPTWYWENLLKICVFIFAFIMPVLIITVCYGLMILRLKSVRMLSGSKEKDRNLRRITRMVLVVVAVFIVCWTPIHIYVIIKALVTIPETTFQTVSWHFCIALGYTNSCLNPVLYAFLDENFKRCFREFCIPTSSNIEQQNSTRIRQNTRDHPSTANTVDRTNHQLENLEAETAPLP
Chain of Adenosine receptor A2a (P29274 whole entry): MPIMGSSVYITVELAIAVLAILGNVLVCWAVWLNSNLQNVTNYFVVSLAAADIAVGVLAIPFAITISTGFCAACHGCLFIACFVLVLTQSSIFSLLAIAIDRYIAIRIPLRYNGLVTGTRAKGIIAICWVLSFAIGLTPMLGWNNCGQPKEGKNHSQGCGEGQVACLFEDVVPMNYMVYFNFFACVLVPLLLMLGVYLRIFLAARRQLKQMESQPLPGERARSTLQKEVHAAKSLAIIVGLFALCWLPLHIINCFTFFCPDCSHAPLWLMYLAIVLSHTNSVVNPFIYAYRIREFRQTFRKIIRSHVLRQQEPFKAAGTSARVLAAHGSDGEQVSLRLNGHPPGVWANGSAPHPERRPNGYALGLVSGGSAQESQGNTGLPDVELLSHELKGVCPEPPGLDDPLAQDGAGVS

Take `CC(=O)SC[C@@H](C)C(=O)N1CCC[C@H]1C(=O)N[C@@H](Cc1ccccc1)C(=O)O`: the AC50 in experiment [1], in experiment [2], in experiment [3], in experiment [4], in experiment [5] and in experiment [6] was above 30 µM each time. For the same compound, the AC50 in experiment [7], in experiment [8] and in [9] was above 30 µM in each case.
On to `NC(=O)CN1CCCC1=O`, for which the AC50 in [1], in [2], in experiment [4], in experiment [5], in [8] and in experiment [10] was above 30 µM each time. Further, in [9], the AC50 (usually the concentration giving half of the maximal activity seen) is above 30 µM.
On to `C[N@+]1(CCF)[C@@H]2CC[C@H]1C[C@@H](OC(=O)C(O)(c1ccccc1)c1ccccc1)C2`, for which the AC50 in experiment [1] is above 10 µM; in [2] it was above 30 µM; in experiment [3], above 30 µM; in experiment [4], above 30 µM; in experiment [5], above 30 µM; in [6] it was 0.0031 µM. In addition, the AC50 in [7], in [8] and in [9] was above 30 µM each time.
With `CCN1CCCC1CNC(=O)c1cc(S(=O)(=O)CC)c(N)cc1OC` (configuration not stated) [AMISULPRIDE], the AC50 was 29 µM in experiment [1]; above 30 µM in [2]; above 30 µM in [4]; above 30 µM in experiment [5]; above 30 µM in experiment [6]; above 30 µM in experiment [8]. Also, the AC50 in [11], in [10], in experiment [12] and in experiment [9] was above 30 µM each time.
As for `O=C(O)CCNC(=O)c1ccccc1` [BETAMIPRON], the AC50 in [1] was above 10 µM; in experiment [2], above 30 µM; in [4], above 30 µM; in [5], above 30 µM; in [8], above 30 µM; in experiment [11] it was above 30 µM. The half-maximal activity concentration (AC50) in experiment [10] and in experiment [9] was above 30 µM in each case.
Consider `COc1cc2ncnc(Nc3ccc(F)c(Cl)c3)c2cc1NC(=O)/C=C/CN1CCCCC1` [DACOMITINIB ANHYDROUS], for which the AC50 in experiment [1] was above 30 µM; in experiment [3], above 30 µM; in [4] it was above 30 µM; in [7], above 30 µM; in experiment [8] it was 21 µM.
In the case of `CCCCCCCCCCCCCCCCCCCCCC(=O)Nc1ccn([C@@H]2O[C@H](CO)[C@@H](O)[C@@H]2O)c(=O)n1` [ENOCITABINE], the AC50 in experiment [1], in [2], in [3], in [4], in experiment [5] and in experiment [6] was above 30 µM each time. The AC50 in experiment [7], in [8] and in [9] was above 30 µM throughout.
As to `CC(=O)[C@]1(O)Cc2c(O)c3c(c(O)c2[C@@H](O[C@H]2C[C@H](N)[C@H](O)[C@H](C)O2)C1)C(=O)c1ccccc1C3=O` [IDARUBICIN], the AC50 in experiment [1] is above 30 µM; in [2], above 30 µM; in [4] it was above 30 µM; in [8] it was 20 µM; in experiment [10], above 30 µM.
As to `Nc1cc(-c2ccncc2)c[nH]c1=O` [INAMRINONE], the AC50 was above 30 µM in experiment [1]; above 30 µM in [4]; above 30 µM in experiment [13]; above 10 µM in experiment [14]; above 30 µM in [5]; above 30 µM in [8]. Besides, the AC50 in experiment [11] was above 10 µM; in experiment [15], above 30 µM; in [10] it was above 30 µM; in experiment [12], above 10 µM; in [9], above 30 µM.
On to `C/C(=C\C(=O)OCCCCCCCCC(=O)O)C[C@@H]1OC[C@H](C[C@@H]2O[C@H]2[C@@H](C)[C@H](C)O)[C@@H](O)[C@H]1O` [MUPIROCIN], for which the AC50 in experiment [1] is above 10 µM; in experiment [4], above 10 µM; in experiment [13], above 30 µM; in experiment [14] it was above 10 µM; in experiment [6] it was above 30 µM; in experiment [8], above 10 µM. Further, the AC50 in [11], in experiment [15] and in experiment [12] was above 10 µM throughout.
Take `O=C1CN=C(c2ccccc2)c2cc([N+](=O)[O-])ccc2N1` [NITRAZEPAM]: the AC50 in [1] is above 10 µM; in experiment [4] it was above 10 µM; in [13], above 30 µM; in [14], above 10 µM; in experiment [8], above 10 µM; in experiment [11], above 10 µM. The AC50 in experiment [15] was above 10 µM; in experiment [12], above 30 µM.
Turning to `CN(C(=O)c1c(O)c2ccccc2n(C)c1=O)c1ccccc1` [ROQUINIMEX], the AC50 in experiment [1], in experiment [3], in [4], in experiment [7] and in experiment [8] was above 30 µM throughout.
Take `OCc1cc(C(O)CNCCCCCCOCCCCc2ccccc2)ccc1O` (configuration not stated) [SALMETEROL]: the AC50 in experiment [1] was above 30 µM; in [4], above 30 µM; in experiment [13], above 30 µM; in experiment [14] it was above 10 µM; in experiment [5], above 30 µM; in experiment [6], above 30 µM. Also, the AC50 in [8], in experiment [15] and in experiment [9] was above 30 µM in each case.
Turning to `CCN(CC)CCNC(=O)c1cc(S(C)(=O)=O)ccc1OC` [TIAPRIDE], the AC50 in experiment [1], in experiment [2], in [4], in experiment [5], in experiment [8] and in [11] was above 30 µM in each case. The AC50 in experiment [9] was above 30 µM.
As to `NC1CCN(c2nc3c(cc2F)c(=O)c(C(=O)O)cn3-c2ccc(F)cc2F)C1` (configuration not stated) [TOSUFLOXACIN], the AC50 in [1] is above 10 µM; in experiment [2] it was above 30 µM; in [4], above 30 µM; in experiment [5], above 30 µM; in [8], above 30 µM; in experiment [9], above 30 µM.

For the origin of these results see ChEMBL document CHEMBL5291721, “A preclinical secondary pharmacology resource illuminates target-adverse drug reaction associations of marketed drugs” (Nat Commun, 2023).
